The values below come from patent US20260215412A1, “AGROCHEMICAL FORMULATION” (priority 2023, published 2026).

A short description of data set [1]: Emulsion stability / emulsion quality testing upon dilution. Conditions: for suitability as emulsifier for EC formulations of pydiflumetofen: sole surfactant in the test formulations (solo surfactant screens); for emulsion quality of two-way blends: non-ionic surfactant combined with anionic surfactant B^an in two-way blends. Format: physicochemical. As for the experimental part: Test sample of EC formulations of 3-difluoromethyl-1-methyl-1H-pyrazole-4-carboxylic acid methoxy-[1-methyl-2-(2,4,6-trichlorophenyl)-ethyl]-amide were diluted in standard water samples of known hardness (Table 5) in crow receivers, which were then incubated overnight at 5° C. and 30° C.
Emulsion quality was assessed visually after homogenising the samples through inversion, using a scale of 0 to 5 as shown in Table 7 below.
Further visual assessments were carried out 0.5, 2 and 24 hours post homogenisation and the volume of any cream or oil recorded. After 24 hours, the samples were re-homogenised and number of inversions required for re-emulsification was recorded and the samples were re-incubated at 5 or 30 (as appropriate) and a final visual assessment, including by microscopy was carried out.

Data set [2] can be described thus: Solubility of pydiflumetofen in solvents suitable for emulsion production. Format: physicochemical. From the text:
The choice of solvent for an agrochemical EC formulation is important and dependent upon the individual active ingredient that is the solute. In addition, the choice of solvent for an emulsifiable concentrate formulation can have an impact on the physical stability, application properties, and biological performance of the agrochemical formulation. In this case the active ingredient is the fungicide pydiflumetofen or 3-difluoromethyl-1-methyl-1H-pyrazole-4-carboxylic acid methoxy-[1-methyl-2-(2,4,6-trichlorophenyl)-ethyl]-amide to give it its IUPAC name (the name “pydiflumetofen” is used herein interchangeably with the IUPAC name 3-difluoromethyl-1-methyl-1H-pyrazole-4-carboxylic acid methoxy-[1-methyl-2-(2,4,6-trichlorophenyl)-ethyl]-amide).

On to “Block copolymer of poyhrdroxystearic acid and polyalkylene glycol [C^ni]”, for which the “suitability as emulsifier for EC formulations of pydiflumetofen” value in data set [1] is listed as “most promising”.
Take “POE (11)-synthetic primary C12/C15 alcohol [B^ni]”: in data set [1], the “emulsion quality of two-way blends” value is on record as “better quality emulsions overall” and the “suitability as emulsifier for EC formulations of pydiflumetofen” value was “most promising”.
Consider `CON(C(=O)c1cn(C)nc1C(F)F)C(C)Cc1c(Cl)cc(Cl)cc1Cl` (centres unmarked) [pydiflumetofen, 3-difluoromethyl-1-methyl-1H-pyrazole-4-carboxylic acid methoxy-[1-methyl-2-(2,4,6-trichlorophenyl)-ethyl]-amide], for which the Solubility of pydiflumetofen at 25° C. % is 17.3% in data set [2] (solvent Acetophenone); 9.65% in data set [2] (solvent Dimethyl lactamide); 3.77% in data set [2] (solvent Dowanol DPM); 5.74% in data set [2] (solvent Ethyl lactate); 14.7% in data set [2] (solvent Gamma butyrolactone); 15.1% in data set [2] (solvent Methyl benzoate). Also, the Solubility of pydiflumetofen at 25° C. % in data set [2] (solvent Octan-1-ol) was determined as 0.63%; in data set [2] (solvent Solvesso 200 ND/ULN), 5.85%; in data set [2] (solvent THFA (Tetrahydrofurfuryl acetate)), 9.7%; in data set [2] (solvent Tributyl phosphate) it was 6.18%; in data set [2] (solvent Triethyl phosphate), 8.82%; in data set [2] (solvent Trimethylcyclohexanone), 10.2%.
As for “Polyoxyethylene sorbitan monolaurate [D^ni]”, the “emulsion quality of two-way blends” value in data set [1] was “better quality emulsions overall”.
In the case of Castor oil ethoxylate [A^ni], the “emulsion quality of two-way blends” value in data set [1] is recorded as “better quality emulsions overall”.
